Read-outs that look alike come from different tables or passages of the source.

For data set [1] the following is noted: cited from earlier work.
The test system of the next data set is CD3+ΔCD19+ cells. In words: CASPALLO phase I clinical trial: AP1903 in patients with GvHD after iCasp9 T cells. Type of data set: in vivo, human. The procedure:
Prior to administration, the calculated dose was diluted to 100 mL in 0.9% normal saline for infusion.

The test system of the next data set is 293 cells. The experiment in a line: SRα-SEAP assay in 293 cells with FRBl2-tagged CAR and iCaspase-9: rapamycin or rimiducid. Type of data set: cell-based, human. As to conditions: overnight; at much lower levels of drug. The method, then: Two tandem FRB, domains were fused to either either a 1st generation Her2-CAR or to a 1st generation CD19-CAR co-expressing inducibleiCaspase-9. 293 cells were transiently transfected with a constitutive reporter plasmid, SRα-SEAP, along with normalized levels of expression plasmids encoding Her2-CAR-FRBl2, iCaspase-9, Her2-CAR-FRBl2+iCasp9, iC9-CAR(19).FRBl2 (coexpressing both CD19-CAR-FRBl2 and iCaspase9), or control vector. […] After overnight incubation with drugs, SEAP activity was determined. […] This dose-dependent decrease required the presence of both the FRB-tagged CAR and the FKBP12-tagged Caspase-9. […] Moreover, on- or off-target-mediated CAR clustering should increase the sensitivity of killing primarily at the site of scFv engagement.
24 hours following transfection (4.1), 293T cells are split to 96-well plates and incubated with dilutions of dimerizing drugs. Briefly, 100 μL media is added to each well of a 96-well flat-bottom plate. Drugs are diluted in tubes to a concentration 4× the top concentration in the gradient to be place on the plate. […]
24 hours after drug stimulation, 96-well plates are wrapped to prevent evaporation and incubated at 65° C. for 2 hours to inactivate endogenous and serum phosphatases while the heat-stable SeAP reporter remains (3, 12, 14). […] Phosphatase activity is measured by fluorescence with excitation at 355 nm and emission at 460 nm. […]

The test system of the next data set is cells. In words: AP1903 needed in vitro for effective signaling of cells. The class given is cell-based. The method, then: This equates to 16-160 μg/L or ˜0.016-1.6 mg/kg (1.6-160 μg/kg).
For another data set, the system named is human CD3+CD19+ T cells. In words: AP1903 dose-dependent elimination in vivo of iCasp9-transduced T cells. Also noted: species or system immune deficient mice (NSG). As to conditions: mouse. The method, then: The Caspase-9 polypeptide has a dose-response curve in vivo, which could be used to eliminate a variable fraction of T cells expressing the Caspase-9 polypeptide.
T cells were transduced with SFG-iCasp9-D330E-2A-ΔCD19 retrovirus and injected i.v. into immune deficient mice (NSG). […] After an additional 24 hours, mice were sacrificed and lymphocytes from the spleen (A) were isolated and analyzed by flow cytometry for the frequency of human CD3+CD19+ T cells.

Another data set deals with FRB-PLF (Homo sapiens, UniProt P42345+P62942, K2095P/T2098L/W2101F). As to conditions: cited from earlier work.
Data set [2] deals with wt FRB (K2095 T2098 W2101) (Homo sapiens, UniProt P42345+P62942). As to conditions: cited from earlier work.
The next data set deals with FRB-KTF (Homo sapiens, UniProt P42345+P62942, W2101F). As to conditions: cited from earlier work.
Sequence of FRB-KTF (P42345 2012-2144 W2101F): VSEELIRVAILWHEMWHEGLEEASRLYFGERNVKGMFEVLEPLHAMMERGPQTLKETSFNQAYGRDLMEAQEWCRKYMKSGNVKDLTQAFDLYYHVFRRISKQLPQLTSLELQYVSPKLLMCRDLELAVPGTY
Sequence of FRB-KTF (P62942 2-108): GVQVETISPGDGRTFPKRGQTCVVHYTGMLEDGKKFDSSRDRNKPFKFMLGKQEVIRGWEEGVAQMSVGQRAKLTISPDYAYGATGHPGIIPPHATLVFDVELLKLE

Sequence of FRB-PLF (P42345 2012-2144 K2095P/T2098L/W2101F): as the sequence (P42345 2012-2144 W2101F) above, with K84P, T87L counted along it
Sequence of FRB-PLF (P62942 2-108): as the sequence (P62942 2-108) above
Sequence of wt FRB (K2095 T2098 W2101) (P62942 2-108): as above
Sequence of wt FRB (K2095 T2098 W2101) (P42345 2012-2144): as the sequence (P42345 2012-2144 W2101F) above, with F90W counted along it

Take `CC[C@H](C(=O)N1CCCC[C@H]1C(=O)O[C@H](CCc1ccc(OC)c(OC)c1)c1cccc(OCC(=O)NCCNC(=O)COc2cccc([C@@H](CCc3ccc(OC)c(OC)c3)OC(=O)[C@@H]3CCCCN3C(=O)[C@@H](CC)c3cc(OC)c(OC)c(OC)c3)c2)c1)c1cc(OC)c(OC)c(OC)c1` (relative stereo) [AP1903, 2-Piperidinecarboxylic acid, 1-[(2S)-1-oxo-2-(3,4,5-trimethoxyphenyl)butyl]-, 1,2-ethanediylbis[imino(2-oxo-2,1-ethanediyl)oxy-3,1-phenylene[(1R)-3-(3,4-dimethoxyphenyl)propylidene]] ester, [2S-[1(R*),2R*[S*[S*[1(R*),2R*]]]]]-(9Cl)]: the “plasma level as % of maximal concentration” value is given as approximately 7% in data set [1] (2 hours post-dose) and approximately 1% in data set [1] (10 hours post-dose). Also, the well-tolerated doses entry in data set [1] (Phase I study) is “up to 1 mg/kg”. For the same compound, in the data set with CD3+ΔCD19+ cells (patients with grade I/II aGVHD, 0.4 mg/kg 2 h infusion, within 30 minutes of infusion), the “ablation of CD3+ΔCD19+ cells” value was more than 90%. Further, the “time to resolution of skin and liver aGvHD” value in the data set on CD3+ΔCD19+ cells (two patients) is not above 24 h. Moreover, the “further change of CD3+ΔCD19+ cells” value in the data set with CD3+ΔCD19+ cells (within 24 hours) is listed as “further log reduction”. For the same compound, the “SEAP activity, % of normal levels” value in the data set on 293 cells is listed as “about 20%”. Besides, the “amount needed in vitro for effective signaling of cells” value in the data set on cells lay in the range of 10 to 100 nM. The “dose sufficient to eliminate most modified T cells in vivo” value in the data set with human CD3+CD19+ T cells worked out at 0.5 mg/kg.
A word on the EC50: it is the concentration needed to bring the measured effect to its halfway point. Consider `CO[C@@H]1C[C@H](C[C@@H](C)[C@@H]2CC(=O)[C@H](C)/C=C(\C)[C@@H](O)[C@@H](OC)C(=O)[C@H](C)C[C@H](C)/C=C/C=C/C=C(\C)[C@H](OC(C)C)C[C@@H]3CC[C@@H](C)[C@@](O)(O3)C(=O)C(=O)N3CCCC[C@H]3C(=O)O2)CC[C@H]1O` [R-Isopropoxyrapamycin], for which the figures for the EC50 (at FRB-PLF; in data set [2]) were approximately 8.5 nM and approximately 300 nM, respectively.
Take S-Butanesulfonamidorap: at FRB-KTF, the EC50 is more than 200 nM.

Values taken from patent US20220125837A1, “METHODS FOR CONTROLLED ELIMINATION OF THERAPEUTIC CELLS” (Bellicum Pharmaceuticals, Inc., priority 2014, published 2022).
